According to patent US6599499B1, “Uses of diterpenoid triepoxides as an anti-proliferative agent” (priority 1999, dated 2003):

How the values were obtained:
[1] = test system: Dx5 (MDR uterine sarcoma) cell line; experiment: cells
Method: (§1) Cells and Transfections. H23 (non-small cell lung cancer) and ZR-75 (breast cancer) cell lines were purchased from ATCC. The Bcl-2 expression vector was provided by Fred Hutchinson Cancer Research Center, Seattle, Wash. MES-SA and Dx5 cell lines were provided by Branimir Sikic (Stanford University). Cells were cultured in the appropriate medium with 10% FCS supplemented with L-glutamine, penicillin and streptomycin. To examine the effect of Bcl-2 on cell survival, the Bcl-2 expression vector or the vector alone was co-transfected with a β galactosidase expression vector (Invitrogen, Carlsbad, Calif.) at a 5:1 ratio using lipofectamine plus (GIBCO BRL, Gaithersburg, Md.) into Dx5 cells. After 36 h cells were stained with 5-bromo4-chloro-3-indolyl […]-D-galactopyranoside (X-gal). Cell survival was calculated as number of total cells-blue cells/total number of cells in a 90 mm^2 area from duplicate plates and expressed as the mean ±S.D.
(§2) Cell death reagents and assays. Cell viability was measured by an MTT assay as recently described (Lee et al. (1999) J. Biol. Chem. 274:13451-13455. z-VAD-fluoromethylketone (z-VAD.fmk) was obtained from Alexis Biochemicals, San Diego, Calif. The effect of z-VAD.fmk on cell viability was analyzed by annexin and propidium iodide staining followed by FACS analysis according to the manufacturer's protocol (Clontech Laboratories, Palo Alto, Calif.). The analysis of apoptosis in histologic sections was done by terminal deoxynucleotidyl transferase (TdT)-mediated d-UTP nick end labeling (TUNEL) of slides from paraffin sections of day 3 tumors harvested from the mice 24 h after the second of two daily treatments with PG490-88 or saline. TUNEL staining was done according to the manufacturer's protocol (Boehringer Mannheim, Indianapolis, Ind.) and then the histology slides were counterstained with methyl green. DNA was isolated from cells for analysis of internucleosomal DNA laddering followed by agarose gel electrophoresis and ethidium bromide staining.
(§3) In FIG. 1A, ZR-75 (breast cancer), H23 (non-small cell lung cancer) and Dx5 (MDR uterine sarcoma) cell lines were treated with PG490 at dosages shown and harvested 48 h later for analysis of cell viability by an MTT assay. Data is the mean of three experiments ±S.D. In FIG. 1B, DNA was isolated from untreated or PG490-treated cells 16 h after the addition of PG490 followed by agarose gel electrophoresis and ethidium bromide staining.

[2] = test system: ZR-75 (breast cancer) cell line; experiment: cells; details: ZR75, 48 h
Method: as §1, §2, §3

[3] = test system: H23 (non-small cell lung cancer) cell line; experiment: cells
Method: as §1, §2, §3

Bax = Bax protein level by immunoblot in MCF-7 cells; format: cell-based, human; details: triptolide-treated MCF-7 cells
Method: Immunoblotting. At 8 hours after triptolide and/or doxorubicin treatment cells were harvested at the times indicated and lysed using HNET buffer (50 mM HEPES pH 7.5, 100 mM NaCl, 1 mM EGTA, and 1% Triton X-100) supplemented with 1 mM DTT, 1 mM PMSF and protease inhibitors cocktail (Boehringer Mannheim, Germany). 35 μg of protein was loaded on 10% SDS-PAGE followed by transferring to PVDF membrane. Immunoblotting was performed as previously described using a p53 mouse monoclonal antibody from Oncogene Research Products (Lee et al. (1999) J Biol Chem 274:13451-5).
Immunoblot analysis using other antibodies was performed as described above. The band intensity was measured by NIH Image 1.62.

phosphorylated p53 = experiment: p53 phosphorylation by in vivo [32P]orthophosphate labeling of HT1080 cells; format: cell-based, human; details: HT1080, triptolide 20 ng/ml, 3 h
Method: In Vivo [^32P]Orthophosphate Labeling. Subconfluent HT1080 cells were pretreated with 20 ng/ml triptolide for 2 h in Dulbecco's modified Eagle's medium supplemented with 10% fetal bovine serum and antibiotics. These cells were washed twice with 37 ° C. labeling medium (Dulbecco's modified Eagle's medium, 10% fetal bovine serum dialyzed against phosphate-free) lacking sodium phosphate. Cells were then labeled for an additional 1 h with the labeling medium containing 1 mCi/ml [32P]orthophosphate and 20 ng/ml triptolide. The labeling medium was removed, and the cells were washed three times with cold Tris-buffered saline (TBS). The cells were scraped in 1 ml of lysis buffer (1% Nonidet P40, 1% sodium deoxycholate, 0.1% SDS, 0.15 M NaCl, 0.01 M sodium phosphate, pH 7.2, 2 mM EDTA, 50 mM sodium fluoride, 0.2 mM sodium vanadate, and 100 units/ml aprotinin) and kept on ice for 10 min. Lysates were passed through 27-gauge needles and spun at 11,000×g for 10 min, and 100 μg of the supernatants were subjected to immunoprecipitation with p53 mAb (Ab-6) conjugated with agarose for 4 h. Samples were then spun at 2500 rpm at 4° C. for 5 min and washed three times with the lysis buffer. The pellets were boiled in SDS sample buffer and analyzed on 10% SDS-PAGE. The bands were visualized and quantified by Optiquant Phosphorlmager.

Dx5 cells = experiment: Cell viability by annexin and propidium iodide staining/FACS with z-VAD.fmk, Dx5 cells; details: Homo sapiens, read-out: cell viability in PG490-treated Dx5 cells
Method: as §2

HT1080 tumor cells = experiment: Nude mouse xenograft, established HT1080 tumors; format: in vivo, nude mice; details: PG490-88 0.75 mg/kg IP days 0-5 and 7-11, CPT-11 11 mg/kg IV days 1, 5, 9
Method: Mice. […] Nude mouse xenograft model. HT1080 tumor cells were grown in tissue culture flasks and harvested using EDTA and trypsin. Cells were centrifuged and the concentration of viable cells was appropriately adjusted. […] Tumor size was monitored after tumor cell implantation by measuring the width, length and thickness of the tumors and using a formula to calculate the volume. […] Control mice were left untreated. […] Combination therapy mice received both PG490-88 and CPT-11 treatments.

Row | Structure (SMILES) | difference in sensitivity between Dx5 cell line and parent MES-SA cell line [1] | cytotoxicity at 0.01 µg/mL ([1]; Homo sapiens, 48 h, read-out: decrease in cell viability) [%] | cytotoxicity at 0.02 µg/mL ([1]; Homo sapiens, 48 h, read-out: reduction of cell viability) [%] | cytotoxicity at 0.01 µg/mL ([2]; read-out: decrease in cell viability) [%] | cytotoxicity at 0.02 µg/mL ([2]; read-out: reduction of cell viability) [%] | cytotoxicity at 0.01 µg/mL ([3]; Homo sapiens, NCI-H23, 48 h, read-out: decrease in cell viability) [%] | cytotoxicity at 0.02 µg/mL ([3]; Homo sapiens, NCI-H23, 48 h, read-out: reduction of cell viability) [%] | cell death, % of cells ([3]; mutant p53 lung cancer cell line) | change in Bax (Bax) | increase in phosphorylated p53 compared with untreated cells (phosphorylated p53) | viability at 0.02 µg/mL (Dx5 cells) [%] | TV Mean Day 4 (HT1080 tumor cells) | TV Mean Day 7 (HT1080 tumor cells) | TV Mean Day 10 (HT1080 tumor cells) | TV Mean Day 14 (HT1080 tumor cells) | TV Mean Day 0 (HT1080 tumor cells; baseline)
1 | CC(C)[C@]12O[C@H]1[C@@H]1O[C@]13[C@]1(O[C@H]1C[C@H]1C4=C(CC[C@@]13C)C(=O)OC4)[C@@H]2O [PG490, triptolide] | No significant difference | 65 to 70 | > 80 | 24 | > 80 | 65 to 70 | > 80 | over 80% | no significant change | 2-3 fold | 15 | – | – | – | – | –
2 | CC(C)[C@]12O[C@H]1[C@@H]1O[C@]13[C@]1(O[C@H]1C[C@H]1C4=C(CC[C@@]13C)C(=O)OC4)[C@@H]2OC(=O)CCC(=O)[O-].[Na+] [PG490-88, 14-succinyl triptolide sodium salt] | – | – | – | – | – | – | – | – | – | – | – | 167 | 208 | 247 | 532 | 107
